In patent US7968601B2, “Adamantyl acetamides as 11-β hydroxysteroid dehydrogenase inhibitors” (Janssen Pharmaceutica N.V., priority 2002, dated 2011):
Where a name gives a salt, the structure may show the parent alone.

Columns and labels:
[1] = biological target: 11b-HSD1 (Homo sapiens, UniProt P28845); test: Enzymatic assay, 11b-HSD1 reductase activity (conversion of cortisone into cortisol); format: biochemical; conditions: pIC50 scored 1-3, read-out: [C1] HSD1-prot Reduct Score
Method: The effects of compounds on 11b-HSD1 dependent conversion of cortisone into cortisol (reductase activity) was studied in a reaction mixture containing 30 mM Tris-HCl buffer pH 7.2, 180 μM NADPH, 1 mM EDTA, 2 μM cortisone, 1 μl drug and/or solvent and 11 μg recombinant protein in a final volume of 100 μl.
(§1) All incubations were performed for 45 min at 37 C in a water bath. The reaction was stopped by adding 100 μl acetonitrile containing 20 μg corticosterone as internal standard. After centrifugation, the product formation was analysed in the supernatant by HPLC on a Hypersyl BDS-C18 column using 0.05 mM ammonium acetate/methanol (50/50) as solvent. In all of the aforementioned assays, the drugs to be tested were taken from a stock solution and tested at a final concentration ranging from […] to 3.10^−9M. From the thus obtained dose response curves, the pIC50 value was calculated and scored as follows; Score 1=pIC50 value<5, Score 2=pIC50 value in the range of 5 to 6, Score 3=pIC50 value>6. (in this table NT stands for Not Tested).

[2] = biological target: T1, 11b-HSD2 (Homo sapiens, UniProt P80365); test: Enzymatic assay, 11b-HSD2 dependent dehydrogenase activity; format: biochemical; conditions: 11b-HSD2 dehydrogenase activity, pIC50 scored 1-3, read-out: [C1] HSD2 prot Dehydro Score
T1 sequence (P80365 1-405): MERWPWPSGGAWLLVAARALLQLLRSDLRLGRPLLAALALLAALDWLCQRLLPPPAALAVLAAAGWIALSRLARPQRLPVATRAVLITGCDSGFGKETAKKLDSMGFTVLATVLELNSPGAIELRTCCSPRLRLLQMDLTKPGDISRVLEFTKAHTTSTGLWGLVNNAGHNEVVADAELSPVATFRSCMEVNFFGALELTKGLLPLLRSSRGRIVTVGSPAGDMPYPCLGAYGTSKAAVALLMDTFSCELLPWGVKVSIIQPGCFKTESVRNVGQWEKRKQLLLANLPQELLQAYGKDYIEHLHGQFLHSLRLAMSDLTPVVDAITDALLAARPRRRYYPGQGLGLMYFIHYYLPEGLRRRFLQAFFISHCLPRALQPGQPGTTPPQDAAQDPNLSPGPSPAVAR
Method: The effects on the 11b-HSD2 dependent dehydrogenase activity was studied in a reaction mixture containing 0.1M sodium phosphate buffer pH 7.5, 300 μM NAD, 100 nM cortisol (of which 2 nM is 3H-radio labelled), 1 μl drug and/or solvent and 2.5 μg recombinant protein in a final volume of 100 μl.
as §1

[3] = biological target: T2, 11b-HSD1 (Mus musculus, UniProt P50172); test: Cellular assay, 11b-HSD1 activity in differentiated 3T3-L1 cells; format: cell-based; conditions: 4 hour pre-incubation, pIC50 scored 1-3, read-out: [C2] HSD1 cellular 3T3-L1 Score
T2 construct: endogenous in cells; host or cells: 3T3-L1 (ATCC-CL-173), differentiated into adipocytes
T2 sequence (P50172 whole entry): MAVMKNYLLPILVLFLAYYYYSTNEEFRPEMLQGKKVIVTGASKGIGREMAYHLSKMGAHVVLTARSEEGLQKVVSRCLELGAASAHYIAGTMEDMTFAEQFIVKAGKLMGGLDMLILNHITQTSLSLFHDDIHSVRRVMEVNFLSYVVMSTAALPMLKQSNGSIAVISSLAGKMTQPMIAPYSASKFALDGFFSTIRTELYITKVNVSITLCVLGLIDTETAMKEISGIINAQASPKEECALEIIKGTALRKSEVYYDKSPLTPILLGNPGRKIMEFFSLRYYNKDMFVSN
Method: The effects on 11b-HSD1 activity was measured in differentiated 3T3-L1 cells and rat hepatocytes.
Mouse fibroblast 3T3-L1 cells (ATCC-CL-173) were seeded at a density of 16500 cells/ml in 12 well plates and grown for 7 days in DMEM medium (supplemented with 10% heat inactivated foetal calf serum, 2 mM glutamine and 25 mg gentamycin) at 37 C in a humidified 5% CO2 atmosphere. Medium was refreshed twice a week. Fibroblasts were differentiated into adipocytes at 37 C in a 5% CO2 humidified atmosphere in growth medium containing 2 μg/ml insulin, 55 μg/ml IBMX and 39.2 μg/ml dexamethasone.
Following a 4 hour pre-incubation with test compound, 0.5 μCi ^3H-cortisone or dehydrocorticosterone, was added to the cultures. One hour later, the medium was extracted on Extrelut^3-columns with 15 ml diethyl ether and the extract was analysed by HPLC as described above.
(§2) As for the enzymatic assays, the compounds to be tested were taken from a stock solution and tested at a final concentration ranging from […] to 3.10^−9M. From the thus obtained dose response curves, the pIC50 value was calculated and scored as follows; Score 1=pIC50 value<5, Score 2=pIC50 value in the range of 5 to 6, Score 3=pIC50 value>6. (in this table NT stands for Not Tested).

[4] = biological target: T1, 11b-HSD2; test: Cellular assay, 11b-HSD2 activity in HepG2 cells; format: cell-based; set-up: endogenous in cells; host or cells: HepG2 (ATCC HB-8065); conditions: 4 hour pre-incubation, pIC50 scored 1-3, read-out: [C2] HSD2 cellular HepG2 Score
Method: The effects on 11b-HSD2 activity was studied in HepG2 and LCC-PK1-cells HepG2-cells (ATCC HB-8065) were seeded in 12 well plates at a density of 100,000 cells/ml and grown at 37 C in a humidified 5% CO2 atmosphere in MEM-Rega-3 medium supplemented with 10% heat inactivated foetal calf serum, 2 mM L-glutamine and sodium bicarbonate). Medium was refreshed twice a week. Pig kidney cells (LCC-PK1, ATCC CRL-1392) were seeded at a density of 150,000 cells/ml in 12 well plates and grown at 37 C in a humidified 5% CO2 atmosphere in Medium 199 supplemented with Earls modified salt solution, 100 U/ml penicillin, 100 μg/ml streptomycin and 10% foetal calf serum. Medium was refreshed twice a week. Twenty four hours prior to the onset of the experiment, medium was changed by medium containing 10% charcoal stripped foetal calf serum.
Following a 4 hour pre-incubation with test compound, 0.5 μCi ^3H-cortisol or corticosterone, was added to the cultures. One hour later, the medium was extracted on Extrelut^3-columns with 15 ml diethyl ether and the extract was analysed by HPLC as described above.
as §2

Sequence of 11b-HSD1 (Homo sapiens, UniProt P28845) (P28845 whole entry): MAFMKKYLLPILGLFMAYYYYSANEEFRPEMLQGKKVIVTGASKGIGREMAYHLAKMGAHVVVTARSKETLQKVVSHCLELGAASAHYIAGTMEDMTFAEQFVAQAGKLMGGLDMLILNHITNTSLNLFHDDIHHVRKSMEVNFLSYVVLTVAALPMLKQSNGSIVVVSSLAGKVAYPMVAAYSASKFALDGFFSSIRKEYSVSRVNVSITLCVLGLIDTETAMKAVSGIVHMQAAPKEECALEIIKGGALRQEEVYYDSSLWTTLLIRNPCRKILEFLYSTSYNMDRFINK

melting point [°C] | IC50 [1] [µM] | IC50 [2] [µM] | IC50 [3] [µM] | IC50 [4] [µM] | Compound
155 to 160 |  |  |  |  | CC(C)(C(=O)N[C@H]1[C@@H]2CC3C[C@H]1C[C@](O)(C3)C2)c1cccc(OCCN2CCOCC2)c1 (as salt: HCl) [Compound 158]
208 to 210 |  |  |  |  | CC(C)(C(=O)N[C@H]1[C@@H]2CC3C[C@H]1C[C@](F)(C3)C2)c1cccc(OCCN2CCOCC2)c1 (as salt: HCl) [Compound 228]
165 to 167 |  |  |  |  | COc1cccc(C(C)(C)C(=O)N[C@@H]2[C@@H]3CC4C[C@H]2C[C@](O)(C4)C3)c1 [Compound 155]
115 to 117 |  |  |  |  | Cc1cccc(C(C)(C)C(=O)N[C@H]2[C@@H]3CC4C[C@H]2C[C@](F)(C4)C3)c1 [Compound 187]
110 to 112 |  |  |  |  | COc1cccc(C(C)(C)C(=O)N[C@@H]2[C@@H]3CC4C[C@H]2C[C@](F)(C4)C3)c1 [Compound 188]
105 to 107 |  |  |  |  | COc1cccc(C(C)(C)C(=O)N[C@H]2[C@@H]3CC4C[C@H]2C[C@](F)(C4)C3)c1 [Compound 189]
165 to 170 |  |  |  |  | CN1CCN(CCOc2cccc(C(C)(C)C(=O)NC3C4CC5CC(C4)CC3C5)c2)CC1 (centres unmarked) [Compound 199]
163 to 165 |  |  |  |  | O=C(NC1C2CC3CC(C2)CC1C3)N1CCCc2ccccc21 (centres unmarked) [Compound 200]
145 to 147 |  |  |  |  | O=C(NC1C2CC3CC(C2)CC1C3)N1CCc2ccccc2C1 (centres unmarked) [Compound 201]
 | > 10 | > 10 | < 1 | > 10 | COc1ccc2c(c1)C(C(=O)NC1C3CC4CC(C3)CC1C4)CCC2 (centres unmarked) [Compound 203]
 | > 10 | > 10 | < 1 | > 10 | COc1cc(C)cc(C(C)(C)C(=O)NC2C3CC4CC(C3)CC2C4)c1 (centres unmarked) [Compound 210]
 | 1 to 10 | > 10 | < 1 | > 10 | CC(C)(C(=O)N[C@H]1[C@@H]2CC3C[C@H]1C[C@](F)(C3)C2)c1cccc(CCC(=O)O)c1 [Compound 217]
170 to 172 |  |  |  |  | O=C(N[C@H]1[C@@H]2CC3C[C@H]1C[C@](O)(C3)C2)N1CCCc2ccccc21 [Compound 218]
185 to 188 |  |  |  |  | O=C(N[C@@H]1[C@@H]2CC3C[C@H]1C[C@](O)(C3)C2)N1CCCc2ccccc21 [Compound 219]
 | < 1 | > 10 | < 1 | > 10 | O=C(NC1C2CC3CC(C2)CC1C3)C1=CCCc2c(Br)cccc21 (centres unmarked) [Compound 223]
 | < 1 | > 10 | < 1 | > 10 | O=C(NC1C2CC3CC(C2)CC1C3)C1CCc2ccccc2C1 (centres unmarked) [Compound 224]
182 to 184 |  |  |  |  | O=C(N[C@H]1[C@@H]2CC3C[C@H]1C[C@](F)(C3)C2)N1CCCc2ccccc21 [Compound 226]
210 to 215 |  |  |  |  | CC(C)(C(=O)N[C@H]1[C@@H]2CC3C[C@H]1C[C@](F)(C3)C2)c1cccc(OCC(=O)O)c1 [Compound 227]
 | < 1 | > 10 | < 1 | > 10 | Cc1cc(CCC(=O)O)cc(C(C)(C)C(=O)NC2C3CC4CC(C3)CC2C4)c1 (centres unmarked) [Compound 230]
 | < 1 | > 10 | < 1 | > 10 | CC1CCC(C(=O)NC2C3CC4CC(C3)CC2C4)c2ccccc21 (centres unmarked) [Compound 236]
 | > 10 | > 10 | < 1 | > 10 | O=C(O)CCc1cccc2c1CCCC2C(=O)NC1C2CC3CC(C2)CC1C3 (centres unmarked) [Compound 240]
 | 1 to 10 | > 10 | < 1 | > 10 | CC(C)(C(=O)N[C@@H]1[C@@H]2CC3C[C@H]1C[C@@](O)(C3)C2)c1cccc(CCC(=O)O)c1 [Compound 242]
 | < 1 | > 10 | < 1 | > 10 | O=C(N[C@H]1[C@@H]2CC3C[C@H]1C[C@](O)(C3)C2)C1CCc2ccccc2C1 (some centres unmarked) [Compound 243]
 | < 1 | > 10 | < 1 | > 10 | Cc1cc(CCC(=O)N2CCOCC2)cc(C(C)(C)C(=O)N[C@H]2[C@@H]3CC4C[C@H]2C[C@](O)(C4)C3)c1 [Compound 248]
 | < 1 | > 10 | < 1 | > 10 | Cc1cc(CCC(=O)N2CCOCC2)cc(C(C)(C)C(=O)N[C@H]2[C@@H]3CC4C[C@H]2C[C@](F)(C4)C3)c1 [Compound 251]
 | > 10 | > 10 | < 1 | > 10 | Cc1cc(CCC(=O)O)cc(C(C)(C)C(=O)N[C@H]2[C@@H]3CC4C[C@H]2C[C@](F)(C4)C3)c1 [Compound 254]
215 to 220 |  |  |  |  | O=C(O)COc1cccc2c1CCN(C(=O)NC1C3CC4CC(C3)CC1C4)C2 (centres unmarked) [Compound 257]
 | < 1 | > 10 | < 1 | > 10 | O=C(O)CCc1cccc2c1CCCC2C(=O)N[C@H]1[C@@H]2CC3C[C@H]1C[C@](F)(C3)C2 (some centres unmarked) [Compound 258]
 | > 10 | > 10 | < 1 | > 10 | COc1cc(C)cc(C(C)(C)C(=O)N[C@H]2[C@@H]3CC4C[C@H]2C[C@](F)(C4)C3)c1 [Compound 263]
